Reference: US20100298141A1, “SUBSTITUTED PYRIDINE N-OXIDE HERBICIDES” (E. I. DU PONT DE NEMOURS AND COMPANY, priority 2007, published 2010)

Tests used:
corn = experiment: Test A pre-/postemergence greenhouse test; assay type: in vivo, Zea mays; conditions: for Corn plant response rating: 0 to 100 scale
Procedure, shortened: (§1)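 Sowing in loam/sand; same-day pre (directed soil spray) and post (foliar, 1–2 leaf, 2–10 cm) treatment with surfactant-containing non-phytotoxic solvent formulation; ~10 days in greenhouse; eye-scored injury against untreated plants.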

velvetleaf [1] = experiment: Test A pre-/postemergence greenhouse test; assay type: in vivo, Abutilon theophrasti; conditions: for Velvetleaf plant response rating: 0 to 100 scale
Procedure, shortened: as §1

velvetleaf [2] = experiment: Test C pre-/postemergence test; assay type: in vivo, Abutilon theophrasti
Procedure, shortened: (§2)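 Seeds were planted and treated preemergence with test chemical in a non-phytotoxic solvent mixture containing surfactant. Postemergence applications of the same formulation went onto plants 2 to 18 cm tall (1- to 4-leaf stage). A dash marks no test result.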

bermudagrass = experiment: Test C pre-/postemergence test; assay type: in vivo, Cynodon dactylon
Procedure, shortened: as §2

johnsongrass = experiment: Test C pre-/postemergence test; assay type: in vivo, Sorghum halepense
Procedure, shortened: as §2

rice = experiment: Test C flooded paddy test; assay type: in vivo, Oryza sativa; conditions: Flood
Procedure, shortened: (§3)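 Under a constant 3 cm flood, test compounds went directly into the paddy water. Following 13 to 15 days of greenhouse growth, treated species and controls were compared by eye.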

wheat = experiment: Test A pre-/postemergence greenhouse test; assay type: in vivo, Triticum aestivum; conditions: for Wheat plant response rating: 0 to 100 scale
Procedure, shortened: as §1

giant foxtail [3] = experiment: Test A pre-/postemergence greenhouse test; assay type: in vivo, Setaria faberi; conditions: for Foxtail, Giant plant response rating: 0 to 100 scale
Procedure, shortened: as §1

duck salad = experiment: Test C flooded paddy test; assay type: in vivo, Heteranthera limosa; conditions: Flood
Procedure, shortened: as §3

lambsquarters = experiment: Test C pre-/postemergence test; assay type: in vivo, Chenopodium album
Procedure, shortened: as §2

Goosegrass = experiment: Test C pre-/postemergence test; assay type: in vivo, Eleusin indica
Procedure, shortened: as §2

giant foxtail [4] = experiment: Test C pre-/postemergence test; assay type: in vivo, Setaria faberii
Procedure, shortened: as §2

barnyardgrass = experiment: Test C flooded paddy test; assay type: in vivo, Echinochloa crus-galli; conditions: Flood
Procedure, shortened: as §3

Surinam grass = experiment: Test C pre-/postemergence test; assay type: in vivo, Brachiaria decumbens
Procedure, shortened: as §2

wild oat = experiment: Test C pre-/postemergence test; assay type: in vivo, Avena fatua
Procedure, shortened: as §2

redroot pigweed = experiment: Test A pre-/postemergence greenhouse test; assay type: in vivo, Amaranthus retroflexus; conditions: for Pigweed plant response rating: 0 to 100 scale
Procedure, shortened: as §1

eastern black nightshade = experiment: Test C pre-/postemergence test; assay type: in vivo, Solanum ptycanthum
Procedure, shortened: as §2

common ragweed = experiment: Test C pre-/postemergence test; assay type: in vivo, Ambrosia elation
Procedure, shortened: as §2

[5] = Postemergence, 125 g ai/ha, 0 is no effect, 100 is complete control
[6] = Postemergence, 500 g ai/ha, 0 is no effect, 100 is complete control
[7] = Preemergence, 125 g ai/ha, 0 no effect, 100 complete control
[8] = Preemergence, 500 g ai/ha, 0 to 100 scale where 0 is no effect and 100 is complete control
[9] = preemergence, 125 g ai/ha, scale 0 (no effect) to 100 (complete control)
[10] = 31 g ai/ha, Preemergence, scale 0 to 100
[11] = 31 g ai/ha, scale 0 to 100 (0 no effect, 100 complete control)
[12] = 62 g ai/ha, scale 0 to 100, 0 no effect, 100 complete control, 13 to 15 days
[13] = 125 g ai/ha, scale 0 to 100, 0 no effect, 100 complete control, 13 to 15 days
[14] = 250 g ai/ha, scale 0 to 100 (0 no effect, 100 complete control)

Cn1nc(C(F)(F)F)c(CS(=O)(=O)c2cccc[n+]2[O-])c1Cl [Compound 9]
Corn plant response rating (corn; [5]): 20
Corn plant response rating (corn; [6]): 60
Corn plant response rating (corn; [7]): 40
Plant response rating, Corn (corn; [8]): 60
Velvetleaf plant response rating (velvetleaf [1]; [5]): 0
Velvetleaf plant response rating (velvetleaf [1]; [6]): 30
Velvetleaf plant response rating (velvetleaf [1]; [7]): 50
Plant response rating, Velvetleaf (velvetleaf [1]; [8]): 60
Plant response rating (0 to 100), Velvetleaf (velvetleaf [2]; Preemergence, 250 g ai/ha): 40
Velvetleaf plant response rating (velvetleaf [2]; [9]): 0
Bermudagrass plant response rating (bermudagrass; [10]): 98
Plant response rating (0 to 100), Bermudagrass (bermudagrass; Preemergence, 250 g ai/ha): 100
Bermudagrass plant response rating (bermudagrass; [9]): 100
Johnsongrass plant response rating (johnsongrass; [10]): 45
Plant response rating (0 to 100), Johnsongrass (johnsongrass; Preemergence, 250 g ai/ha): 100
Johnsongrass plant response rating (johnsongrass; [9]): 100
Plant response rating, Rice (rice; [11]): 10
Plant response rating, Rice (rice; [12]): 40
Plant response rating, Rice (rice; [13]): 70
Plant response rating, Rice (rice; [14]): 70
Wheat plant response rating (wheat; [5]): 40
Wheat plant response rating (wheat; [6]): 60
Wheat plant response rating (wheat; [7]): 50
Plant response rating, Wheat (wheat; [8]): 70
Foxtail, Giant plant response rating (giant foxtail [3]; [5]): 90
Foxtail, Giant plant response rating (giant foxtail [3]; [6]): 90
Foxtail, Giant plant response rating (giant foxtail [3]; [7]): 100
Plant response rating, Foxtail, Giant (giant foxtail [3]; [8]): 100
Plant response rating, Ducksalad (duck salad; [11]): 0
Plant response rating, Ducksalad (duck salad; [12]): 65
Plant response rating, Ducksalad (duck salad; [13]): 85
Plant response rating, Ducksalad (duck salad; [14]): 90
Lambsquarters plant response rating (lambsquarters; [10]): 0
Plant response rating (0 to 100), Lambsquarters (lambsquarters; Preemergence, 250 g ai/ha): 100
Lambsquarters plant response rating (lambsquarters; [9]): 80
Goosegrass plant response rating (Goosegrass; [10]): 100
Plant response rating (0 to 100), Goosegrass (Goosegrass; Preemergence, 250 g ai/ha): 100
Goosegrass plant response rating (Goosegrass; [9]): 100
Foxtail, Giant plant response rating (giant foxtail [4]; [10]): 85
Plant response rating (0 to 100), Foxtail, Giant (giant foxtail [4]; Preemergence, 250 g ai/ha): 100
Foxtail, Giant plant response rating (giant foxtail [4]; [9]): 100
Plant response rating, Barnyardgrass (barnyardgrass; [11]): 0
Plant response rating, Barnyardgrass (barnyardgrass; [12]): 60
Plant response rating, Barnyardgrass (barnyardgrass; [13]): 85
Plant response rating, Barnyardgrass (barnyardgrass; [14]): 90
Plant response rating (0 to 100), Surinam Grass (Surinam grass; Preemergence, 250 g ai/ha): 100
Surinam Grass plant response rating (Surinam grass; [9]): 85
Oat, Wild plant response rating (wild oat; [10]): 0
Oat, Wild plant response rating (wild oat; 62 g ai/ha, preemergence, scale 0 (no effect) to 100 (complete control)): 0
Plant response rating (0 to 100), Oat, Wild (wild oat; Preemergence, 250 g ai/ha): 55
Oat, Wild plant response rating (wild oat; [9]): 40
Pigweed plant response rating (redroot pigweed; [5]): 10
Pigweed plant response rating (redroot pigweed; [6]): 60
Pigweed plant response rating (redroot pigweed; [7]): 100
Plant response rating, Pigweed (redroot pigweed; [8]): 100
Nightshade plant response rating (eastern black nightshade; [10]): 80
Nightshade plant response rating (eastern black nightshade; [9]): 100
Ragweed plant response rating (common ragweed; [10]): 45
Plant response rating (0 to 100), Ragweed (common ragweed; Preemergence, 250 g ai/ha): 100
Ragweed plant response rating (common ragweed; [9]): 90
